Source: patent publication US20150297482A1, “MALODOR COUNTERACTING COMPOSITIONS AND METHOD FOR THEIR USE TO COUNTERACT SWEAT MALODOR” (FIRMENICH SA, priority 2009, published 2015)
Where a name gives a salt, the structure may show the parent alone. Read-outs that look alike come from different tables or passages of the source.

Test system: Staphylococcus haemolyticus CNCM I-4170
Assay: Protocol A: in-vitro malodor inhibition (free thiol groups from Cys-Gly precursor, DTNB absorbance at 412 nm)
Format: cell-based
Source text: Further details of such a screening and % inhibition measurement and definition are described further on in this application. The precursor used, which may also be in the form of a human sweat sample, typically generates malodorant sulfur compounds when acted upon by the Staphylococcus haemolyticus cells, or by a β-lyase present in such cells. The malodor inhibition coefficient, as defined herein, reflects the % of reduction in free SH groups generated in the above-mentioned medium by the enzymatic activity of the bacterial cells when in presence of the MOC ingredient or MOC composition in question, as compared to the same measurement in their absence. […] Alternatively, the bacterial cells can be replaced by a β-lyase present in said cells. […] Detection of enzymatic activity inhibition is measured via the sulfur groups, namely thiol groups, freed from the precursor bacterial transformation, by comparison with the reference experiment in the absence of the respective MOC ingredient, said sulfur groups being detected by interaction with DTNB, a known chemical detector system for thiols. The reaction can be monitored by absorbance reading at 412 nm. The procedure can be performed indifferently with either a purified or semi-purified enzyme or intact bacterial cells, as in the case described here. Malodor inhibition coefficient is measured as a function of the percentage of free thiol groups in the medium, over time, by an absorbance method, and reflects the reduction in malodor obtained in the presence of the MOC ingredients and compositions. […] At the end of the growth phase, the bacterial cells were harvested by centrifugation at 5000 rpm for 15 min. The cell pellet was then washed with 0.1 volumes of sterile potassium phosphate buffer 0.1 M, pH 7.5. […] The precursor was used at 0.17 mM final concentration. • Detection reagent DTNB • DTNB (5,5′-Dithio-bis-(2-nitrobenzoic acid; […]

[1] = Staphylococcus haemolyticus, CNCMI4170, Table 2, 0.0012 w/v % in medium, read-out: Ingredient Malodor Inhibition Value (%)
[2] = Staphylococcus haemolyticus, CNCMI4170, Table 2, 0.0025 w/v % in medium, read-out: Ingredient Malodor Inhibition Value (%)
[3] = Staphylococcus haemolyticus, CNCMI4170, Table 2, 0.005 w/v % in medium, read-out: Ingredient Malodor Inhibition Value (%)
[4] = Staphylococcus haemolyticus, CNCMI4170, Table 2, 0.0125 w/v % in medium, read-out: Ingredient Malodor Inhibition Value (%)
[5] = Staphylococcus haemolyticus, CNCMI4170, Table 2, 0.025 w/v % in medium, read-out: Ingredient Malodor Inhibition Value (%)
[6] = Staphylococcus haemolyticus, CNCMI4170, Table 2, 0.05 w/v % in medium, read-out: Ingredient Malodor Inhibition Value (%)
[7] = Table 2, 0.0012 w/v % in medium
[8] = Table 2, 0.0025 w/v % in medium
[9] = Staphylococcus haemolyticus, CNCMI4170, 0.0012 w/v % in medium, read-out: Ingredient Malodor Inhibition Value (%)
[10] = Staphylococcus haemolyticus, CNCMI4170, 0.0025 w/v % in medium, read-out: Ingredient Malodor Inhibition Value (%)
[11] = Staphylococcus haemolyticus, CNCMI4170, 0.006 w/v % in medium, read-out: Ingredient Malodor Inhibition Value (%)
[12] = Staphylococcus haemolyticus, CNCMI4170, 0.0125 w/v % in medium, read-out: Ingredient Malodor Inhibition Value (%)
[13] = Staphylococcus haemolyticus, CNCMI4170, 0.025 w/v % in medium, read-out: Ingredient Malodor Inhibition Value (%)
[14] = Staphylococcus haemolyticus, CNCMI4170, 0.1 w/v % in medium, read-out: Ingredient Malodor Inhibition Value (%)
[15] = Staphylococcus haemolyticus, CNCMI4170, 0.05 w/v % in medium, read-out: Ingredient Malodor Inhibition Value (%)

## CC=CCCCCCCCC=O [9-Undecenal]
[1]
  inhibition at 0.0012 %: 0%
[2]
  inhibition at 0.0025 %: 0%
[3]
  inhibition at 0.005 %: 62.4%
[4]
  inhibition at 0.0125 %: 89%
[5]
  inhibition at 0.025 %: 81.8%
[6]
  inhibition at 0.05 %: 77.9%

## Vetyverone
[7]
  Ingredient Malodor Inhibition Value (%): 10.9%
[8]
  Ingredient Malodor Inhibition Value (%): 10.40%
Table 2, 0.005 w/v % in medium
  Ingredient Malodor Inhibition Value (%): 44.6%
Table 2, 0.025 w/v % in medium
  Ingredient Malodor Inhibition Value (%): 47.1%
Table 2, 0.05 w/v % in medium
  Ingredient Malodor Inhibition Value (%): 54.2%

## CCCCCCC/C=C\CCC=O [(Z)-4-Dodecenal]
Staphylococcus haemolyticus, CNCMI4170, Table 2, 0.0006 w/v % in medium, read-out: Ingredient Malodor Inhibition Value (%)
  inhibition at 0.0006 %: 0%
[1]
  inhibition at 0.0012 %: 0%
[2]
  inhibition at 0.0025 %: 6.96%
[3]
  inhibition at 0.005 %: 76.5%

## CC(C)CCCC(C)CC=O (centres unmarked) [3,7-Dimethyloctanal]
[1]
  inhibition at 0.0012 %: 0%
[2]
  inhibition at 0.0025 %: 0%
[3]
  inhibition at 0.005 %: 18.1%
[4]
  inhibition at 0.0125 %: 66.7%

## CCCCCCCCC=O [Nonanal]
[1]
  inhibition at 0.0012 %: 5.26%
[2]
  inhibition at 0.0025 %: 5.08%
[3]
  inhibition at 0.005 %: 40.2%
[4]
  inhibition at 0.0125 %: 80.4%
[5]
  inhibition at 0.025 %: 94.8%
[6]
  inhibition at 0.05 %: 97.8%

## CC(C)(O)CCC1CCCCC1 [Coranol ®, 4-cyclohexyl-2-methyl-2-butanol]
[9]
  inhibition at 0.0012 %: 0%
[10]
  inhibition at 0.0025 %: 0%
[11]
  inhibition at 0.006 %: 10.8%
[12]
  inhibition at 0.0125 %: 49.8%
[13]
  inhibition at 0.025 %: 77.7%
[14]
  inhibition at 0.1 %: 77.8%

## C[C@H]1[C@@H]2CC(C[C@@]13C=CC(=O)CC3)C2(C)C (single isomer, unassigned; (+))
0.0012 w/v % in medium
  Ingredient Malodor Inhibition Value (%): 0.00%
0.0025 w/v % in medium
  Ingredient Malodor Inhibition Value (%): 14.02%
0.006 w/v % in medium
  Ingredient Malodor Inhibition Value (%): 26.00%
0.0125 w/v % in medium
  Ingredient Malodor Inhibition Value (%): 72.64%
0.025 w/v % in medium
  Ingredient Malodor Inhibition Value (%): 75.94%
0.05 w/v % in medium
  Ingredient Malodor Inhibition Value (%): 75.68%

## CC(C)(C)c1ccc(CCC=O)cc1 [Bourgeonal, 3-(4-tert-butylphenyl)propanal]
[9]
  inhibition at 0.0012 %: 4.15%
[10]
  inhibition at 0.0025 %: 7.06%
[11]
  inhibition at 0.006 %: 42.6%

## CC1=CC[C@H](C(C)CC=O)CC1 (single isomer, unassigned; (+)) [(+)-(4R)-1-P-Menthene-9-carbaldehyde]
[7]
  Ingredient Malodor Inhibition Value (%): 0.00%
[8]
  Ingredient Malodor Inhibition Value (%): 3.44%
Table 2, 0.005 w/v % in medium
  Ingredient Malodor Inhibition Value (%): 34.61%
Table 2, 0.0125 w/v % in medium
  Ingredient Malodor Inhibition Value (%): 81.68%
Table 2, 0.025 w/v % in medium
  Ingredient Malodor Inhibition Value (%): 97.82%

## Terpenyl acetate
0.0012 w/v % in medium
  Ingredient Malodor Inhibition Value (%): 0.00%
0.0025 w/v % in medium
  Ingredient Malodor Inhibition Value (%): 0.00%
0.006 w/v % in medium
  Ingredient Malodor Inhibition Value (%): 0.00%
0.0125 w/v % in medium
  Ingredient Malodor Inhibition Value (%): 0.00%
0.025 w/v % in medium
  Ingredient Malodor Inhibition Value (%): 0.00%
0.05 w/v % in medium
  Ingredient Malodor Inhibition Value (%): 6.81%
0.1 w/v % in medium
  Ingredient Malodor Inhibition Value (%): 00.00%

## CCCCCCC/C=C/C=O [(E)-2-Decenal]
[1]
  inhibition at 0.0012 %: 22%
[2]
  inhibition at 0.0025 %: 28.2%
[3]
  inhibition at 0.005 %: 66.6%
[4]
  inhibition at 0.0125 %: 90.1%
[5]
  inhibition at 0.025 %: 100%

## CC1C(C)(C)C2=C(C(=O)CCC2)C1(C)C (centres unmarked) [Cashmeran, 1,2,3,5,6,7-hexahydro-1,1,2,3,3-pentamethyl-4-indenone]
[9]
  inhibition at 0.0012 %: 0%
[10]
  inhibition at 0.0025 %: 0%
[11]
  inhibition at 0.006 %: 19.2%
[12]
  inhibition at 0.0125 %: 54%
[13]
  inhibition at 0.025 %: 71.5%
[15]
  inhibition at 0.05 %: 70.1%
[14]
  inhibition at 0.1 %: 73.2%

## CCCCCCCCCCC=CC=O [2-Tridecenal (ethyl citrate solution), 2-Tridecenal]
[1]
  inhibition at 0.0012 %: 29%
[2]
  inhibition at 0.0025 %: 40.2%
[3]
  inhibition at 0.005 %: 50%
[4]
  inhibition at 0.0125 %: 81%

## CC(C)(C)C1CCC(O)CC1 (centres unmarked) [4-tert-Butyl-1-cyclohexanol]
[9]
  inhibition at 0.0012 %: 0%
[10]
  inhibition at 0.0025 %: 0%
[11]
  inhibition at 0.006 %: 0%
[12]
  inhibition at 0.0125 %: 0%
[13]
  inhibition at 0.025 %: 59.8%
[15]
  inhibition at 0.05 %: 89.1%
